Legend:
HIV = conditions: described in Org. Biomol. Chem., 2003, 3514-3526; cited from earlier work
[1] = Cytotoxicity in Huh-7 cells; format: cell-based; conditions: human
Experimental: (§1) The in vitro antiviral activity against HCV of the compound of formula I was tested in a cellular HCV replicon system based on Lohmann et al. (1999) Science 285:110-113, with the further modifications described by Krieger et al. (2001) Journal of Virology 75: 4614-4624 (incorporated herein by reference), which is further exemplified in the examples section. This model, while not a complete infection model for HCV, is widely accepted as the most robust and efficient model of autonomous HCV RNA replication currently available. It will be appreciated that it is important to distinguish between compounds that specifically interfere with HCV functions from those that exert cytotoxic or cytostatic effects in the HCV replicon model, and as a consequence cause a decrease in HCV RNA or linked reporter enzyme concentration. Assays are known in the field for the evaluation of cellular cytotoxicity based for example on the activity of mitochondrial enzymes using fluorogenic redox dyes such as resazurin. Furthermore, cellular counter screens exist for the evaluation of non-selective inhibition of linked reporter gene activity, such as firefly luciferase. […]

[2] = tested on: HCV replicon (HCV type 1b NS3-NS5B) in Huh-7 luc/neo cells; assay: HCV replicon assay (Huh-Luc, luciferase readout); format: cell-based, HCV genotype 1b; conditions: Hepatitis C virus, Huh-7, 72 h, three days incubation, luciferase activity
Experimental: as §1, with “concentration.” for “concentration. Assays are known in the field for the evaluation of cellular cytotoxicity based for example on the activity of mitochondrial enzymes using fluorogenic redox dyes such as resazurin. Furthermore, cellular counter screens exist for the evaluation of non-selective inhibition of linked reporter gene activity, such as firefly luciferase.”
The replicon cells were plated in 384-well plates in the presence of the test and control compounds which were added in various concentrations. Following an incubation of three days, HCV replication was measured by assaying luciferase activity (using standard luciferase assay substrates and reagents and a Perkin Elmer ViewLux™ ultraHTS microplate imager). […] The inhibitory activity of the compound on luciferase activity was monitored on the Huh-Luc cells, enabling a dose-response curve for the test compound. […]

| SMILES | activity against HIV (HIV) | CC50 [1] [µM] | EC50 [2] [µM] |
| --- | --- | --- | --- |
| Cc1cn([C@@H]2O[C@H](CO)[C@@H](O)[C@]23CCO3)c(=O)[nH]c1=O [1-(2-O,2-C-ethano-β-D-ribofuranosyl)thymine] | no activity was found |  |  |
| O=c1ccn([C@@H]2O[C@H](CO)[C@@H](O)[C@]23CCO3)c(=O)[nH]1 [1-(2-O,2-C-ethano-β-D-ribofuranosyl)uracil] | no activity was found |  |  |
| CCCCOC(=O)[C@H](C)N[P@@](=O)(OC[C@H]1O[C@@H](n2ccc(=O)[nH]c2=O)[C@@]2(CCO2)[C@@H]1O)Oc1ccccc1 [P1, butyl N-[(R)-{[(4R,5R,7R,8R)-5-(2,4-dioxo-3,4-dihydro-pyrimidin-1(2H)-yl)-8-hydroxy-1,6-dioxaspiro[3.4]oct-7-yl]methoxy}(phenoxy)-phosphoryl]-L-alaninate] |  | > 98 | 4.47 |

— patent publication US9006209B2, “Uracyl spirooxetane nucleoside phosphoramidates” (Janssen Products, LP, priority 2010, dated 2015)
